Results: patent US20110052776A1, “CHOCOLATE COMPOSITIONS HAVING IMPROVED FLAVOUR CHARACTERISTICS” (priority 2007, published 2011)

What was measured:
expert panel members [1] = test: Sucrose Equivalent Value (SEV) of pH 3.2 buffered sucrose solution, taste panel; format: in vivo; details: for SEV (%): 500 ppm of one potentiator in pH 3.2 buffered 5% sucrose solution; for maximum sweetness attainable (SEV): pH 3.2 buffered 5% sucrose solution, dose response curve 0 to 1000 ppm; for effect on SEV of sucrose solutions, forms of 2,4-DHB: 500 ppm, pH 3.2 buffered solutions with 0%, 3%, 5%, 7% and 9% sucrose; for SEV of solution containing 500 ppm 2,4-DHB and 500 ppm of a second sweetener potentiator: label = second potentiator, 5% sucrose solution
Method: (§1) One method of measuring the perceived sweetness of a solution is to match it with a stock sucrose solution of known concentration. In the present experiments, the compound of interest is added at a predetermined concentration to a pH 3.2 buffered solution containing 5% sucrose. A number of expert panel members then taste the solution and compare it to a battery of stock sucrose solutions ranging from 3% to 15% at increments of 1%. Each panel member decides which sucrose solution is equisweet with the solution containing the compound of interest. The mean value is then reported as the SEV. Results are reported to 1 decimal place.
In accordance with this methodology, 3-HB was added to a pH 3.2 buffered solution containing 5% sucrose to produce solutions containing from 0 to 1000 ppm 3-HB in 100 ppm increments. […] From FIG. 1 it is apparent that as the dosage of 3-HB increases so does the sweetness of the resultant solution. However the effect is non-linear with each incremental addition having a diminishing effect. The maximum sweetness attainable would appear to be about 7.9% SEV (based on a 5% sucrose solution).
The same methodology as described in Example 6 was repeated with 2,4-DHB in place of 3-HB, to produce the dose response curve for 2,4-DHB (FIG. 2). […] The maximum attainable sweetness would appear to be about 6.7% SEV (based on a 5% sucrose solution).
500 ppm of a sweetener potentiator was added to a pH 3.2 buffered solution containing 5% sucrose and the SEV of the resultant solution determined.
500 ppm of the sweetener potentiator then was added to a 5% sucrose solution containing 500 ppm 3-HB to produce a series of solutions. […] The use of 500 ppm of 3-HB alone results in an SEV of 6.9% whereas in all cases but two (2,4-DHB and 3,4-DHB) the addition of a second sweetener potentiator results in a little change or even a decrease in SEV. This is highly surprising considering that all of the potentiators are shown to have SEVs greater than 5%.
The methodology was repeated to produce a series of solutions containing 500 ppm 2,4-DHB and 500 ppm of a second sweetener potentiator.
500 ppm of 3-HB, 500 ppm of 2,4-DHB and 500 ppm of 3,4-dihydroxybenzoic acid (3,4-DHB) were added to a pH 3.2 buffered solution containing 5% sucrose and the SEV determined. The results are shown in FIG. 7 together with other combinations of 3-HB, 2,4-DHB and 3,4-DHB for comparison. The solution containing the combination of 3-HB and 2,4-DHB (hatched) has a much higher SEV (8.7%) than the combination of either 3,4-DHB and 3-HB (7.6%) or the combination of 3,4-DHB and 2,4-DHB (6.8%). The three-way combination of the embodiment (hatched) is better still with an SEV of 9.8%.
Buffered solutions of pH 3.2 were prepared containing 0%, 3%, 5%, 7% and 9% sucrose. 500 ppm of 2,4-DHB acid, 500 ppm of the sodium salt of 2,4-DHB and 500 ppm of the potassium salt of 2,4-DHB were added individually to each of the sucrose solutions. The SEV for each of the solutions was then determined.
500 ppm of 3-aminobenzoic acid and 500 ppm of 4-aminobenzoic acid were individually added to separate pH 3.2 buffered solutions containing 5% sucrose and the SEVs of the resultant solutions were determined. The SEV of 3-aminobenzoic acid was about 7%, i.e., increased the sweetness intensity of 5% sucrose to about 7%. The SEV of 4-aminobenzoic acid was about 5.5-6%, i.e., increased the sweetness intensity of 5% sucrose to about 5.5-6%.

panel member = test: Sucrose reduction method versus 10% sucrose control, taste panel; format: in vivo; details: 1000 ppm used individually; control pH 3.2 10% sucrose
Method: An alternative method of measuring perceived sweetness is to determine how much sucrose can be replaced through the use of the compound of interest without any Perceived loss of sweetness. In the present experiments the control was a pH 3.2 buffered solution containing 10% sucrose. The compound of interest is added at a predetermined concentration to a number of sucrose solutions containing from 5% to 10% sucrose at increments of 0.5%. Each panel member tastes each of the solutions, compares it to the control sample and decides which solutions are equisweet. For example, if the 8% sucrose solution containing the compound of interest is equisweet with the control, then the sucrose reduction achieved by the compound of interest is 20%.
A series of sucrose solutions were prepared containing 3-HB and 2,4-DHB at a combined concentration of 1000 ppm. Each solution was evaluated using the sucrose reduction method described above to determine how much sucrose could be replaced without noticeable loss of sweetness.
A series of sucrose solutions were prepared containing equal quantities of 3-HB and 2,4-DHB, at a combined concentration of 200, 400, 600, 800 and 1000 ppm. Each solution was evaluated using the sucrose reduction method described in Example 8 above to determine how much sucrose could be replaced without noticeable loss of sweetness.

expert panel members [2] = test: SEV of non-sucrose sweetener solutions (SEV about 5%) after addition of potentiators; format: in vivo; details: 500 ppm 3-HB alone versus with 500 ppm 2,4-DHB; pH 3.2
Method: as §1
The SEV of each sweetener solution was then evaluated after the addition 500 ppm of 3-HB, the addition of 500 ppm of 2,4-DHB and the addition of both 500 ppm 3-HB and 2,4-DHB.

[3] = cited from earlier work

## O=C(O)c1ccc(O)c(O)c1O [2,3,4-trihydroxybenzoic acid (2,3,4-THB), 2,3,4-trihydroxybenzoic acid]
Expert panel members [1]
  SEV (%): 5.4%

## O=C(O)c1cccc(O)c1 [Example 3-HB, 3-hydroxybenzoic acid]
Panel member
  sucrose reduction: 25%
Expert panel members [2]
  effect on sweetness of saccharin solution: enhances the sweetness to a greater degree alone than in combination with 2,4-DHB
Expert panel members [1]
  SEV (%): 6.9%
  maximum sweetness attainable (SEV): about 7.9 % SEV

## O=C(O)c1cc(O)ccc1O [2,5-dihydroxybenzoic acid (2,5-DHB), 2,5-dihydroxybenzoic acid]
Expert panel members [1]
  SEV (%): 5.3%

## O=C([O-])c1ccc(O)cc1O.[Na+] [sodium salt of 2,4-DHB]
Expert panel members [1]
  effect on SEV of sucrose solutions, forms of 2,4-DHB: enhances the sweetness of the sucrose solution in every case

## O=C(O)c1ccc(O)cc1 [4-hydroxybenzoic acid (4-HB), 4-hydroxybenzoic acid]
Expert panel members [1]
  SEV (%): 5.2%
  SEV of solution containing 500 ppm 2,4-DHB and 500 ppm of a second sweetener potentiator: 6.2%

## O=C(O)c1ccc(O)c(O)c1 [3,4-dihydroxybenzoic acid (3,4-DHB), 3,4-dihydroxybenzoic acid]
Expert panel members [1]
  SEV (%): 6.4%

## Nc1ccc(C(=O)O)cc1 [4-aminobenzoic acid]
Expert panel members [1]
  SEV (%): 5.5-6%

## O=C(O)c1cc(O)cc(O)c1 [3,5-dihydroxybenzoic acid (3,5-DHB), 3,5-dihydroxybenzoic acid]
Expert panel members [1]
  SEV (%): 5.3%

## O=C(O)c1ccc(O)cc1O [2,4-DHB, 2,4-dihydroxybenzoic acid]
Panel member
  sucrose reduction: 15%
[3]; FIGS. 1 and 2 and Tables 1 and 2 of U.S. Pat. No. 6,461,658
  effect on the sweetness intensity of both sucralose and aspartame: slightly inhibitory effect
[3]; U.S. Pat. No. 6,461,658
  length of time during which sucralose sweetness is perceived: significantly reducing
[3]; addition of 0.2% 2,4-DHB, Canadian Patent No. 1208966
  effect on sweetness of a 5% sucrose solution: increase in sweetness
Expert panel members [1]; 400 ppm in pH 3.2 buffered 5% sucrose solution
  SEV: 6.5%
Expert panel members [1]
  SEV (%): 6.5%
  effect on SEV of sucrose solutions, forms of 2,4-DHB: enhances the sweetness of the sucrose solution in every case
  maximum sweetness attainable (SEV): about 6.7 % SEV
Expert panel members [1]; 1000 ppm in pH 3.2 buffered 5% sucrose solution
  SEV: 6.7%

## O=C([O-])c1ccc(O)cc1O.[K+] [potassium salt of 2,4-DHB]
Expert panel members [1]
  effect on SEV of sucrose solutions, forms of 2,4-DHB: enhances the sweetness of the sucrose solution in every case

## O=C(O)c1c(O)cccc1O [2,6-dihydroxybenzoic acid (2,6-DHB), 2,6-dihydroxybenzoic acid]
Expert panel members [1]
  SEV (%): 5.3%

## Nc1cccc(C(=O)O)c1 [3-aminobenzoic acid]
Expert panel members [1]
  SEV (%): about 7%

## O=C(O)c1cccc(O)c1O [2,3-dihydroxybenzoic acid (2,3-DHB), 2,3-dihydroxybenzoic acid]
Expert panel members [1]
  SEV (%): 6.3%

## O=C(O)c1cc(O)c(O)c(O)c1 [3,4,5-tryhydroxybenzoic acid (3,4,5-THB), 3,4,5-tryhydroxybenzoic acid]
Expert panel members [1]
  SEV (%): 5.1%

## O=C(O)c1ccccc1O [2-hydroxybenzoic acid (2-HB), 2-hydroxybenzoic acid]
Expert panel members [1]
  SEV (%): 5.6%
  SEV of solution containing 500 ppm 2,4-DHB and 500 ppm of a second sweetener potentiator: 6.3%

## O=C(O)c1c(O)cc(O)cc1O [2,4,6-trihydroxybenzoic acid (2,4,6-THB), 2,4,6-trihydroxybenzoic acid]
Expert panel members [1]
  SEV (%): 5.4%
